{"source": "patent US10071133B2", "about": "“Method for destroying exosomes, kit for destroying exosomes, and method for isolating exosomes derived from normal cells” (priority 2015, dated 2018)", "note": "Ends that are not written are not given here.", "data": [{"tested_on": "exosome fraction B derived from human breast cancer cells (MDA-MB-231-luc-D3H2LN)", "assay": "Extraction of microRNA (miR-21) from exosomes derived from human breast cancer cells, real-time PCR", "type": "biochemical", "conditions": "100 μM peptide, 1×10^11 particles/mL exosomes, 0.4 U/μL RNase inhibitor, 37° C., 24 hours; without peptide 8×10^−14M", "method": "A cell suspension of cell line MDA-MB-231-luc-D3H2LN derived from human breast cancer (=MM231-luc-D3H2LN, provided by the National Cancer Center Research Institute) was seeded in a dish containing RPMI 1640 medium (manufactured by Thermo Fisher Scientific Inc.) containing 10% fetal bovine serum. Subsequently, the cell line was grown at 37° C. under the condition that CO2 concentration was set to 5 volume % using a CO2 incubator, and then the medium was replaced with Advanced RPMI 1640 medium (manufactured by Thermo Fisher Scientific Inc.), followed by culturing for 48 hours, and therefore the culture solution containing exosomes was obtained. This culture solution was centrifuged at 2,000 G for 10 minutes to remove the precipitate, followed by centrifugation at 110,000 G for 70 minutes to precipitate the exosomes, and therefore an exosome fraction B was recovered. The recovered exosome fraction B was suspended in a phosphate buffered saline (PBS) and then stored at 4° C. Storage samples were lightly suspended with a vortex mixer (vibration mixer) before use.\nMicroRNA (miR-21 or miR-16) in the reaction solution was subjected to reverse transcription PCR using reverse transcription primers (manufactured by Thermo Fisher Scientific Inc., Taqman microRNA Assays, RT primers, and hsa-mir-21 or hsa-mir-16) and a reverse transcriptase (manufactured by Thermo Fisher Scientific Inc., Taqman microRNA RT kit).\nThe reverse transcription PCR solution obtained by the above described method was processed and by comparing the number of cycles on a calibration curve of microRNA using Taqman Assay primer (manufactured by Thermo Fisher Scientific Inc., Taqman microRNA Assays, Taqman Assay primer, and hsa-mir-21 or hsa-mir-16) and Real-Time PCR Master Mixes (manufactured by Thermo Fisher Scientific Inc., TaqMan Universal PCR Master Mix II, w/UNG) with StepOnePlus Real-Time PCR System, MiR-21 or miR-16 was quantified. The calibration curve of microRNA was created using synthetic miR-21 (manufactured by Sigma-Aldrich Co. LLC.) or synthetic miR-16 (manufactured by Sigma-Aldrich Co. LLC.).\n10 μL of the exosome fraction was prepared such that PBS contains 1×10^11 particles/mL of the exosome fraction B derived from human breast cancer cells, various antimicrobial peptides shown in the following Table 2 adjusted to 100 μM, and 0.4 U/μL of RNase inhibitor (manufactured by Toyobo Co., Ltd.), followed by incubation by being left to stand at 37° C. for 24 hours.\nMicroRNA eluted into the solution was purified and recovered from the incubated solution of Example 10 above and Comparative Example 6 above by the following method.\nFirst, 160 μL of PBS was added to the reaction solution, and then the solution was added to a centrifugal filter (manufactured by Millipore Corporation, Amicon Ultra 0.5 mL, 100K filter) and centrifuged at 14,000 G for 2 minutes. Subsequently, 100 μL of the centrifuged filtrate was recovered and introduced into a 1.5 mL tube. Next, 350 μL of RLT buffer (manufactured by QIAGEN, attached with RNeasy mini kit) and 675 μL of ethanol were added and mixed in the 1.5 mL tube. The obtained mixture was separated into two parts, and each of the separates was added onto a spin column (manufactured by QIAGEN, attached with RNeasy mini kit) followed by centrifugation at 8,000 G for 15 seconds, and the entire amount of the mixture was passed through the spin column. Thereafter, 500 μL of RPE buffer (manufactured by QIAGEN, attached with RNeasy mini kit) was added thereto and centrifuged at 8,000 G for 15 seconds. Furthermore, 500 μL of the RPE buffer was added to the spin column once more and centrifuged at 8,000 G for 15 seconds. Thereafter, the spin column was centrifuged at 14,000 G for 1 minute to remove the residual RPE buffer. Next, 30 μL of RNase free water (manufactured by QIAGEN, attached with RNeasy mini kit) was added to the spin column, left for 1 minute, and then centrifuged at 14,000 G for 1 minute, and the eluate obtained thereby was recovered. […]", "values": [{"compound": "9R: amino acid sequence RRRRRNWMWC", "Destructive activity (concentration of microRNA miR-21 in eluate)": "B (the concentration of microRNA is 10×10^−14M to 50×10^−14M)"}, {"compound": "CCCCCCCCCCCCCCCC[N+](C)(C)C.[Br-]", "note": "[1% CTAB, CTAB, reference compound]", "Destructive activity (concentration of microRNA miR-21 in eluate)": "D (the concentration of microRNA is less than 10×10^−14M)"}, {"compound": "N=C(N)N", "note": "[4M guanidine, guanidine, reference compound]", "Destructive activity (concentration of microRNA miR-21 in eluate)": "D (the concentration of microRNA is less than 10×10^−14M)"}, {"compound": "CCCCCCCCCCCCCCCCCCOP(=O)([O-])OCC[P+](C)(C)C", "note": "[Octadecylphosphophosphoniumcholine, reference compound]", "Destructive activity (concentration of microRNA miR-21 in eluate)": "D (the concentration of microRNA is less than 10×10^−14M)"}, {"compound": "(Gln^53)-Connexin 37 (51-58) [(Gln^53)-Connexin 37(51-58)]", "Destructive activity (concentration of microRNA miR-21 in eluate)": "D (the concentration of microRNA is less than 10×10^−14M)"}, {"compound": "(HHPHG)3", "Destructive activity (concentration of microRNA miR-21 in eluate)": "B (the concentration of microRNA is 10×10^−14M to 50×10^−14M)"}, {"compound": "(HHPHG) 2 (HHPHGHHPHG) [(HHPHG)2]", "Destructive activity (concentration of microRNA miR-21 in eluate)": "B (the concentration of microRNA is 10×10^−14M to 50×10^−14M)"}, {"compound": "(HHPHG) 4 [(HHPHG)4]", "Destructive activity (concentration of microRNA miR-21 in eluate)": "B (the concentration of microRNA is 10×10^−14M to 50×10^−14M)"}, {"compound": "Alloferon 1 (HGVSGHGQHGVHG)", "Destructive activity (concentration of microRNA miR-21 in eluate)": "D (the concentration of microRNA is less than 10×10^−14M)"}, {"compound": "Ascaphin-8", "Destructive activity (concentration of microRNA miR-21 in eluate)": "B (the concentration of microRNA is 10×10^−14M to 50×10^−14M)"}, {"compound": "Benzalkonium-Cl [1% Benzalkonium-Cl, reference compound]", "Destructive activity (concentration of microRNA miR-21 in eluate)": "D (the concentration of microRNA is less than 10×10^−14M)"}, {"compound": "Buforin IIb", "Destructive activity (concentration of microRNA miR-21 in eluate)": "B (the concentration of microRNA is 10×10^−14M to 50×10^−14M)"}, {"compound": "C-Reactive Protein (CRP) (174-185) (IYLGGPFSPNVL; UniProt P02741 192-203, looked up, fragment)", "Destructive activity (concentration of microRNA miR-21 in eluate)": "D (the concentration of microRNA is less than 10×10^−14M)"}, {"compound": "Cecropin B (KWKVFKKIEKMGRNIRNGIVKAGPAIAVLGEAKAL-NH2)", "Destructive activity (concentration of microRNA miR-21 in eluate)": "B (the concentration of microRNA is 10×10^−14M to 50×10^−14M)"}, {"compound": "Defensin HNP-1", "Destructive activity (concentration of microRNA miR-21 in eluate)": "B (the concentration of microRNA is 10×10^−14M to 50×10^−14M)"}, {"compound": "Dermaseptin", "Destructive activity (concentration of microRNA miR-21 in eluate)": "B (the concentration of microRNA is 10×10^−14M to 50×10^−14M)"}, {"compound": "Dermcidin-1L (SSLLEKGLDGAKKAVGGLGKLGKDAVEDLESVGKGAVHDVKDVLDSVL)", "Destructive activity (concentration of microRNA miR-21 in eluate)": "D (the concentration of microRNA is less than 10×10^−14M)"}, {"compound": "Epinecidin-1 (GFIFHIIKGLFHAGKMIHGLV-NH2)", "Destructive activity (concentration of microRNA miR-21 in eluate)": "B (the concentration of microRNA is 10×10^−14M to 50×10^−14M)"}, {"compound": "Gageostatin C", "Destructive activity (concentration of microRNA miR-21 in eluate)": "D (the concentration of microRNA is less than 10×10^−14M)"}, {"compound": "Hepcidin-20 (ICIFCCGCCHRSKCGMCCKT; ends and bridges not checked; cysteine pairing not given here; UniProt P81172 65-84, looked up)", "Destructive activity (concentration of microRNA miR-21 in eluate)": "D (the concentration of microRNA is less than 10×10^−14M)"}, {"compound": "Histatin-5", "Destructive activity (concentration of microRNA miR-21 in eluate)": "B (the concentration of microRNA is 10×10^−14M to 50×10^−14M)"}, {"compound": "Macropin 1", "Destructive activity (concentration of microRNA miR-21 in eluate)": "B (the concentration of microRNA is 10×10^−14M to 50×10^−14M)"}, {"compound": "Maculatin 3.1", "Destructive activity (concentration of microRNA miR-21 in eluate)": "B (the concentration of microRNA is 10×10^−14M to 50×10^−14M)"}, {"compound": "Magainin I (GIGKFLHSAGKFGKAFVGEIMKS) [Megainin I]", "Destructive activity (concentration of microRNA miR-21 in eluate)": "B (the concentration of microRNA is 10×10^−14M to 50×10^−14M)"}, {"compound": "NK-2", "Destructive activity (concentration of microRNA miR-21 in eluate)": "B (the concentration of microRNA is 10×10^−14M to 50×10^−14M)"}, {"compound": "NRC-03", "Destructive activity (concentration of microRNA miR-21 in eluate)": "B (the concentration of microRNA is 10×10^−14M to 50×10^−14M)"}]}]}
